Key:
Pseudomonas aeruginosa [1] = assay: Antibacterial activity against BL positive Pseudomonas aeruginosa 09-14 after 18 hrs by agar dilution assay; format: functional; settings: 09-14, 18 h
Escherichia coli [2] = assay: Antibacterial activity against acrAB and acrEF knock-out Escherichia coli BL21 by microbroth dilution assay; format: functional
Klebsiella pneumoniae [3] = assay: Antibacterial activity against ESBL negative Klebsiella pneumoniae 7 after 18 hrs by agar dilution assay; format: functional; settings: Klebsiella pneumoniae, 7, 18 h
Pseudomonas aeruginosa [4] = assay: Antimicrobial activity against Pseudomonas aeruginosa PAO1 after 18 hrs by microdilution method in presence of 0.4 uM iron; format: functional; settings: PAO1, 18 h
Klebsiella pneumoniae [5] = assay: Antibacterial activity against ESBL positive Klebsiella pneumoniae 09-25 after 18 hrs by agar dilution assay; format: functional; settings: 09-25, 18 h
Escherichia coli [6] = assay: Selectivity ratio of MIC for Escherichia coli BL21 to MIC for acrAB and acrEF knock-out Escherichia coli BL21; format: functional
Proteus mirabilis = assay: Antibacterial activity against beta-lactamase producing Proteus mirabilis 09-1 after 18 hrs by agar dilution assay; format: functional; settings: 09-1, 18 h
Serratia marcescens = assay: Antibacterial activity against beta-lactamase producing Serratia marcescens 41002 after 18 hrs by agar dilution assay; format: functional; settings: Serratia marcescens, 41002, 18 h
Pseudomonas aeruginosa [7] = assay: Antimicrobial activity against Pseudomonas aeruginosa 27853 after 18 hrs by microdilution method in presence of 4 uM iron; format: functional; settings: Pseudomonas aeruginosa, 27853, 18 h
Pseudomonas aeruginosa [8] = assay: Antimicrobial activity against Pseudomonas aeruginosa 27853 after 18 hrs by microdilution method in presence of 40 uM iron; format: functional; settings: Pseudomonas aeruginosa, 27853, 18 h
Escherichia coli [9] = assay: Antibacterial activity against Escherichia coli BL21 by microbroth dilution assay; format: functional
Proteus vulgaris = assay: Antibacterial activity against beta-lactamase producing Proteus vulgaris 29905 after 18 hrs by agar dilution assay; format: functional; settings: Proteus vulgaris, 29905, 18 h
Enterobacter cloacae = assay: Antibacterial activity against beta-lactamase producing Enterobacter cloacae 45301 after 18 hrs by agar dilution assay; format: functional; settings: Enterobacter cloacae, 45301, 18 h
Klebsiella pneumoniae [10] = assay: Antibacterial activity against ESBL negative Klebsiella pneumoniae 09-8 after 18 hrs by agar dilution assay; format: functional; settings: 09-8, 18 h
Klebsiella pneumoniae [11] = assay: Antibacterial activity against NDM-1 positive Klebsiella pneumoniae BAA-2146 after 18 hrs by agar dilution assay; format: functional; settings: BAA-2146, 18 h
Citrobacter freundii = assay: Antibacterial activity against beta-lactamase producing Citrobacter freundii 43864 after 18 hrs by agar dilution assay; format: functional; settings: Citrobacter freundii, 43864, 18 h
Klebsiella aerogenes = assay: Antibacterial activity against beta-lactamase producing Enterobacter aerogenes 45102 after 18 hrs by agar dilution assay; format: functional; settings: Klebsiella aerogenes, 45102, 18 h
Pseudomonas aeruginosa [12] = assay: Antimicrobial activity against Pseudomonas aeruginosa PAO1 after 18 hrs by microdilution method in presence of 40 uM iron; format: functional; settings: PAO1, 18 h
Escherichia coli [13] = assay: Antibacterial activity against ESBL negative Escherichia coli 1515 after 18 hrs by agar dilution assay; format: functional; settings: Escherichia coli, 1515, 18 h
Pseudomonas aeruginosa [14] = assay: microbe, parasite or virus in culture; settings: Pseudomonas aeruginosa, 27853, 18 h
Description: Antimicrobial activity against Pseudomonas aeruginosa 27853 after 18 hrs by microdilution method in absence of iron

Escherichia coli [15] = assay: Antibacterial activity against ESBL negative Escherichia coli 25922 after 18 hrs by agar dilution assay; format: functional; settings: Escherichia coli, 25922, 18 h
Escherichia coli [16] = assay: Antibacterial activity against ESBL positive Escherichia coli 09-1 after 18 hrs by agar dilution assay; format: functional; settings: 09-1, 18 h
Pseudomonas aeruginosa [17] = assay: Antibacterial activity against BL positive Pseudomonas aeruginosa PAO1 after 18 hrs by agar dilution assay; format: functional; settings: PAO1, 18 h
Providencia rettgeri = assay: Antibacterial activity against Providencia rettgeri 31052 after 18 hrs by agar dilution assay; format: functional; settings: Providencia rettgeri, 31052, 18 h
Klebsiella pneumoniae [18] = assay: Antibacterial activity against ESBL positive Klebsiella pneumoniae 700603 after 18 hrs by agar dilution assay; format: functional; settings: Klebsiella pneumoniae, 700603, 18 h
Escherichia coli [19] = assay: Antibacterial activity against ESBL negative Escherichia coli 09-20 after 18 hrs by agar dilution assay; format: functional; settings: 09-20, 18 h
Pseudomonas aeruginosa [20] = assay: Antimicrobial activity against Pseudomonas aeruginosa PAO1 after 18 hrs by microdilution method in absence of iron; settings: PAO1, 18 h
Pseudomonas aeruginosa [21] = assay: Antimicrobial activity against Pseudomonas aeruginosa 27853 after 18 hrs by microdilution method in presence of 0.4 uM iron; format: functional; settings: Pseudomonas aeruginosa, 27853, 18 h
Salmonella typhi = assay: Antibacterial activity against beta-lactamase producing Salmonella typhi H901 after 18 hrs by agar dilution assay; format: functional, Salmonella enterica subsp. enterica serovar Typhi; settings: Salmonella enterica, H901, 18 h
Pseudomonas aeruginosa [22] = assay: Antibacterial activity against BL positive Pseudomonas aeruginosa 27853 after 18 hrs by agar dilution assay; format: functional; settings: Pseudomonas aeruginosa, 27853, 18 h
Morganella morganii = assay: Antibacterial activity against beta-lactamase producing Morganella morganii 25830 after 18 hrs by agar dilution assay; format: functional; settings: Morganella morganii, 25830, 18 h
Pseudomonas aeruginosa [23] = assay: Antimicrobial activity against Pseudomonas aeruginosa PAO1 after 18 hrs by microdilution method in presence of 4 uM iron; format: functional; settings: PAO1, 18 h

CCN(CC)CC.C[C@H]1[C@H](NC(=O)/C(=N\OCc2ccc(C(=O)N/N=C/c3ccccc3O)cc2)c2csc(N)n2)C(=O)N1S(=O)(=O)O (relative stereo)
MIC (Pseudomonas aeruginosa [1]): 4 µg/mL | MIC (Escherichia coli [2]): 2 µg/mL | MIC (Klebsiella pneumoniae [3]): 2 µg/mL | MIC (Pseudomonas aeruginosa [4]): 128 µg/mL | MIC (Klebsiella pneumoniae [5]): > 64 µg/mL | Selectivity ratio (Escherichia coli [6]): >16 | MIC (Proteus mirabilis): 8 µg/mL | MIC (Serratia marcescens): 8 µg/mL | MIC (Pseudomonas aeruginosa [7]): 128 µg/mL | MIC (Pseudomonas aeruginosa [8]): > 128 µg/mL | MIC (Escherichia coli [9]): 64 µg/mL | MIC (Proteus vulgaris): 0.25 µg/mL | MIC (Enterobacter cloacae): 2 µg/mL | MIC (Klebsiella pneumoniae [10]): 16 µg/mL | MIC (Klebsiella pneumoniae [11]): > 64 µg/mL | MIC (Citrobacter freundii): 4 µg/mL | MIC (Klebsiella aerogenes): 2 µg/mL | MIC (Pseudomonas aeruginosa [12]): > 128 µg/mL | MIC (Escherichia coli [13]): 2 µg/mL | MIC (Pseudomonas aeruginosa [14]): 128 µg/mL | MIC (Escherichia coli [15]): 4 µg/mL | MIC (Escherichia coli [16]): 64 µg/mL | MIC (Pseudomonas aeruginosa [17]): 4 µg/mL | MIC (Providencia rettgeri): ≤ 0.03 µg/mL | MIC (Klebsiella pneumoniae [18]): > 64 µg/mL | MIC (Escherichia coli [19]): 64 µg/mL | MIC (Pseudomonas aeruginosa [20]): > 128 µg/mL | MIC (Pseudomonas aeruginosa [21]): 128 µg/mL | MIC (Salmonella typhi): 0.5 µg/mL | MIC (Pseudomonas aeruginosa [22]): 8 µg/mL | MIC (Morganella morganii): 2 µg/mL | MIC (Pseudomonas aeruginosa [23]): 128 µg/mL

— ChEMBL document CHEMBL3763031, “Design, synthesis and biological evaluation of monobactams as antibacterial agents against gram-negative bacteria” (2016)
